Data reported in US20230146455A1, “TREATMENT OF INFLAMMATORY DISEASES WITH PEPTIDES AND PHARMACEUTICAL COMPOSITIONS” (Yuyu Pharma, Inc., priority 2020, published 2023).
“And” between values parts separate entries of the source, which are not always exact repeats. Identical values can stand only once. Where a SMILES comes first, the peptide text is derived from it. [ ]: non-standard residue; d: D form. Hyp = O=C(O)[C@@H]1C[C@@H](O)CN1

System: IL-1 alpha
Test: Example 9 Luminex, LPS hPBMCs: IL-1 alpha
Format: cell-based, human
Details: for Concentration / conc/live cell: IL-1 alpha, replicates and Mean
Experimental: Treatment Human PBMCs were pretreated with YY-101, YDE-011 and YDE-043 or reference compound; Xiidra® at various concentration (ranging from 1 nM to 100 uM) for 2 h before stimulation. An equal volume of 0.5% DMSO was used as a vehicle control. Then, the cells were treated with LPS at 5 ug/ml. The supernatants from treated cells were harvested at 24 h and placed in a 96 well for Luminex cytokine & chemokine profiling using a Luminex 200 multiplex assay (Luminex; R&D system, USA).
The main study arm with triplicate wells per group in a 24-well plate: • 1. Blank • 2. PBMC: 0.5% DMSO • 3. PBMC+LPS (5 ug/ml) • 4. PBMC+YY-101 100 uM • 5. PBMC+YY-101 10 uM • 6. PBMC+YY-101 1 uM • 7. PBMC+YY-101 0.1 uM • 8. PBMC+YY-101 0.01 uM • 9. PBMC+LPS (5 ug/ml)+Xiidra®100 uM • 10. PBMC+LPS (5 ug/ml)+Xiidra® 10 uM • 11. PBMC+LPS (5 ug/ml)+Xiidra® 1 uM • 12. PBMC+LPS (5 ug/ml)+Xiidra®0.1 uM • 13. PBMC+LPS (5 ug/ml)+Xiidra®0.01 uM • 14. PBMC+LPS (5 ug/ml)+Xiidra®0.001 uM • 15. PBMC+LPS (5 ug/ml)+YY-101 100 uM • 16. PBMC+LPS (5 ug/ml)+YY-101 10 uM • 17. PBMC+LPS (5 ug/ml)+YY-101 1 uM • 18. PBMC+LPS (5 ug/ml)+YY-101 0.1 uM • 19. PBMC+LPS (5 ug/ml)+YY-101 0.01 uM • 20. PBMC+LPS (5 ug/ml)+YY-101 0.001 uM • 21. PBMC+LPS (5 ug/ml)+YDE-011 100 uM • 22. PBMC+LPS (5 ug/ml)+YDE-011 10 uM • 23. PBMC+LPS (5 ug/ml)+YDE-011 1 uM • 24. PBMC+LPS (5 ug/ml)+YDE-011 0.1 uM • 25. PBMC+LPS (5 ug/ml)+YDE-011 0.01 uM • 26. PBMC+LPS (5 ug/ml)+YDE-011 0.001 uM • 27. PBMC+LPS (5 ug/ml)+YDE-043 100 uM • 28. PBMC+LPS (5 ug/ml)+YDE-043 10 uM • 29. PBMC+LPS (5 ug/ml)+YDE-043 1 uM • 30. PBMC+LPS (5 ug/ml)+YDE-043 0.1 uM • 31. PBMC+LPS (5 ug/ml)+YDE-043 0.01 uM • 32. PBMC+LPS (5 ug/ml)+YDE-043 0.001 uM
Multiplex assay was used to measure 30 cytokines and chemokines. The 1:2, 1:10 and 1:200 diluted cell supernatant and serial dilution of the standard were dispensed into a 96 well plate at 50 ul/well. Then, the pre-mixed cocktail of antibody-coated magnetic beads was dispensed at 50 ul/well and incubated at room temperature for 2 h in a horizontal orbital microplate shaker at 800±500 rpm. The beads were washed using a magnetic device to prevent loss. The biotin-antibody was dispensed in 50 ul of each well and incubated at room temperature for 1 h in a shaker at 800±500 rpm. After washing, streptavidin-PE was added at 50 ul/well and incubated at room temperature for 30 min in a shaker under the same conditions. Finally, after washing, wash buffer (100 ul/well) was added to the plate and incubated in a shaker for 2 min. The Luminex™ 200 setting were set according to the manufacturer's protocol. The data was calculated with a standard five-parameter logistic nonlinear regression analysis of the data (xPonent software 4.2, USA). The levels of cytokine/chemokine are normalized to the live cell counts (1×10^5 cells/mL) and presented as concentrations per mL (pg/mL or ng/mL).

[1] = PBMC + LPS(5 ug/ml) + YY101 0.001 uM
[2] = PBMC + LPS(5 ug/ml) + YY101 0.001 uM, mean
[3] = PBMC + LPS(5 ug/ml) + YY101 0.01 uM
[4] = PBMC + LPS(5 ug/ml) + YY101 0.01 uM, mean
[5] = PBMC + LPS(5 ug/ml) + YY101 0.1 uM
[6] = PBMC + LPS(5 ug/ml) + YY101 0.1 uM, mean
[7] = PBMC + LPS(5 ug/ml) + YY101 1 uM
[8] = PBMC + LPS(5 ug/ml) + YY101 1 uM, mean
[9] = PBMC + LPS(5 ug/ml) + YY101 10 uM
[10] = PBMC + LPS(5 ug/ml) + YY101 10 uM, mean
[11] = PBMC + LPS(5 ug/ml) + YY101 100 uM
[12] = PBMC + LPS(5 ug/ml) + YY101 100 uM, mean
[13] = PBMC + YY101 0.01 uM (second group so labelled), no LPS
[14] = PBMC + YY101 0.01 uM (second group so labelled), no LPS, mean
[15] = PBMC + YY101 0.01 uM, no LPS, mean
[16] = PBMC + YY101 1 uM, no LPS, mean
[17] = PBMC + YY101 10 uM, no LPS, mean
[18] = PBMC + YY101 100 uM, no LPS, mean
[19] = PBMC + LPS(5 ug/ml) + YDE011 0.001 uM
[20] = PBMC + LPS(5 ug/ml) + YDE011 0.001 uM, mean
[21] = PBMC + LPS(5 ug/ml) + YDE011 0.01 uM
[22] = PBMC + LPS(5 ug/ml) + YDE011 0.01 uM, mean
[23] = PBMC + LPS(5 ug/ml) + YDE011 0.1 uM
[24] = PBMC + LPS(5 ug/ml) + YDE011 0.1 uM, mean
[25] = PBMC + LPS(5 ug/ml) + YDE011 1 uM
[26] = PBMC + LPS(5 ug/ml) + YDE011 1 uM, mean
[27] = PBMC + LPS(5 ug/ml) + YDE011 10 uM
[28] = PBMC + LPS(5 ug/ml) + YDE011 10 uM, mean
[29] = PBMC + LPS(5 ug/ml) + YDE011 100 uM
[30] = PBMC + LPS(5 ug/ml) + YDE011 100 uM, mean

## CC(C)C[C@H](NC(=O)CNC(=O)[C@H](CC(=O)O)NC(=O)[C@H](CCC(N)=O)NC(=O)CNC(=O)[C@@H]1C[C@@H](O)CN1)C(=O)N[C@@H](C)C(=O)NCC(=O)N1CCC[C@H]1C(=O)N[C@@H](CCCCN)C(=O)O [YY-101] (H-[Hyp]GQDGLAGPK-OH; N-terminus and C-terminus assumed)
[1]
  Concentration: 426.2 pg/mL and 461.9 pg/mL and 419.9 pg/mL
  conc/live cell: 74.8 pg/10^5 and 65.1 pg/10^5 and 63.6 pg/10^5
[2]
  Concentration: 436.0 pg/mL
  conc/live cell: 67.8 pg/10^5
[3]
  Concentration: 506.1 pg/mL and 475.9 pg/mL and 484.7 pg/mL
  conc/live cell: 79.1 pg/10^5 and 79.3 pg/10^5 and 79.5 pg/10^5
[4]
  Concentration: 488.9 pg/mL
  conc/live cell: 79.3 pg/10^5
[5]
  Concentration: 491.3 pg/mL and 481.8 pg/mL and 482.5 pg/mL
  conc/live cell: 79.2 pg/10^5 and 92.6 pg/10^5 and 77.8 pg/10^5
[6]
  Concentration: 485.2 pg/mL
  conc/live cell: 83.2 pg/10^5
[7]
  Concentration: 451.2 pg/mL and 427.3 pg/mL and 434.3 pg/mL
  conc/live cell: 71.6 pg/10^5 and 60.2 pg/10^5 and 70.0 pg/10^5
[8]
  Concentration: 437.6 pg/mL
  conc/live cell: 67.3 pg/10^5
[9]
  Concentration: 473.3 pg/mL and 470.7 pg/mL and 483.6 pg/mL
  conc/live cell: 78.9 pg/10^5 and 73.6 pg/10^5 and 63.6 pg/10^5
[10]
  Concentration: 475.9 pg/mL
  conc/live cell: 72.0 pg/10^5
[11]
  Concentration: 656.9 pg/mL and 616.5 pg/mL and 614.2 pg/mL
  conc/live cell: 104.3 pg/10^5 and 99.4 pg/10^5 and 122.8 pg/10^5
[12]
  Concentration: 629.2 pg/mL
  conc/live cell: 108.8 pg/10^5
[13]
  Concentration: 1.0 pg/mL and 5.3 pg/mL
  conc/live cell: 0.2 pg/10^5 and 0.9 pg/10^5
[14]
  Concentration: 3.1 pg/mL
  conc/live cell: 0.6 pg/10^5
PBMC + YY101 0.01 uM, no LPS
  Concentration: 1.0 pg/mL and 5.3 pg/mL
  conc/live cell: 0.2 pg/10^5 and 1.1 pg/10^5
[15]
  Concentration: 3.1 pg/mL
  conc/live cell: 0.6 pg/10^5
PBMC + YY101 1 uM, no LPS
  Concentration: 5.3 pg/mL
  conc/live cell: 1.0 pg/10^5
[16]
  Concentration: 5.3 pg/mL
  conc/live cell: 1.0 pg/10^5
PBMC + YY101 10 uM, no LPS
  Concentration: 31.7 pg/mL and 7.1 pg/mL
  conc/live cell: 5.0 pg/10^5 and 1.2 pg/10^5
[17]
  Concentration: 19.4 pg/mL
  conc/live cell: 3.1 pg/10^5
PBMC + YY101 100 uM, no LPS
  Concentration: 10.4 pg/mL and 5.3 pg/mL
  conc/live cell: 1.6 pg/10^5 and 0.8 pg/10^5
[18]
  Concentration: 7.9 pg/mL
  conc/live cell: 1.2 pg/10^5
At 100.iM, LPS 5 ug/mL 24 hrs
  LPS-induced IL-1a levels (in words): further increased

## CC(C)C[C@H](NC(=O)CNC(=O)[C@H](CC(C)C)NC(=O)[C@H](CCC(N)=O)NC(=O)CNC(=O)[C@@H]1C[C@@H](O)CN1)C(=O)N[C@@H](C)C(=O)NCC(=O)N1CCC[C@H]1C(=O)N[C@@H](CCCCN)C(=O)O [YDE-011] (H-[Hyp]GQLGLAGPK-OH)
[19]
  Concentration: 336.1 pg/mL and 335.4 pg/mL and 361.1 pg/mL
  conc/live cell: 74.7 pg/10^5 and 57.8 pg/10^5 and 62.3 pg/10^5
[20]
  Concentration: 344.2 pg/mL
  conc/live cell: 64.9 pg/10^5
[21]
  Concentration: 359.2 pg/mL and 381.8 pg/mL and 342.8 pg/mL
  conc/live cell: 57.9 pg/10^5 and 74.9 pg/10^5 and 54.4 pg/10^5
[22]
  Concentration: 361.3 pg/mL
  conc/live cell: 62.4 pg/10^5
[23]
  Concentration: 332.4 pg/mL and 312.9 pg/mL and 347.3 pg/mL
  conc/live cell: 50.4 pg/10^5 and 62.6 pg/10^5 and 60.9 pg/10^5
[24]
  Concentration: 330.9 pg/mL
  conc/live cell: 58.0 pg/10^5
[25]
  Concentration: 349.2 pg/mL and 321.1 pg/mL and 345.8 pg/mL
  conc/live cell: 63.5 pg/10^5 and 66.9 pg/10^5 and 72.0 pg/10^5
[26]
  Concentration: 338.7 pg/mL
  conc/live cell: 67.5 pg/10^5
[27]
  Concentration: 356.2 pg/mL and 327.9 pg/mL and 345.8 pg/mL
  conc/live cell: 66.0 pg/10^5 and 56.5 pg/10^5 and 73.6 pg/10^5
[28]
  Concentration: 343.3 pg/mL
  conc/live cell: 65.4 pg/10^5
[29]
  Concentration: 446.4 pg/mL and 402.2 pg/mL and 436.1 pg/mL
  conc/live cell: 73.2 pg/10^5 and 65.9 pg/10^5 and 72.7 pg/10^5
[30]
  Concentration: 428.2 pg/mL
  conc/live cell: 70.6 pg/10^5
